Laboratory results reported in ChEMBL document CHEMBL1201862, “PubChem BioAssay data set” (2004).
Active and inactive are the calls of the source.

Legend:
[1] = system: Streptococcus sp. 'group A'; assay: growth inhibition of control SK(-) GAS strain, dose response, counter-screen for streptokinase expression inhibitor project, luminescence, kanamycin, BacTiterGlo, confirmation (AID 1900); type: functional, organism-based
[2] = inhibitors of intracellular T. cruzi replication, confirmation, NIH3T3 host cells, beta-gal luminescence (AID 2044); type: functional, cell-based;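 also: intracellular parasites grown in NIH/3T3 mouse fibroblasts as host cells; luminescent beta-galactosidase reporter signal from transgenic T. cruzi replicating inside host cells; inhibitors lower the luminescence signal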
[3] = cytotoxicity toward NIH3T3 fibroblasts, dose response, counter-screen, cell-based, ATP luminescence, mouse fibroblasts (AID 2010); type: functional;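 also: cells exposed to compound for about 90 hours before reading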
[4] = Counterscreen for AddAB inhibitors: absorbance-based bacterial cell-based high throughput dose response assay for inhibitors of bacterial viability. [Related pubchem assays (depositor defined):AID435030, AID449728, AID449731, AID488942, AID488955, AID488956]; type: functional
[5] = target: T1, Replicative DNA helicase DnaB (Mycobacterium tuberculosis, UniProt P9WMR3); assay: DnaB intein splicing inhibitors, dose response, biochemical, cell-free fluorescence (AID 449749); type: functional
T1 sequence (P9WMR3 whole entry): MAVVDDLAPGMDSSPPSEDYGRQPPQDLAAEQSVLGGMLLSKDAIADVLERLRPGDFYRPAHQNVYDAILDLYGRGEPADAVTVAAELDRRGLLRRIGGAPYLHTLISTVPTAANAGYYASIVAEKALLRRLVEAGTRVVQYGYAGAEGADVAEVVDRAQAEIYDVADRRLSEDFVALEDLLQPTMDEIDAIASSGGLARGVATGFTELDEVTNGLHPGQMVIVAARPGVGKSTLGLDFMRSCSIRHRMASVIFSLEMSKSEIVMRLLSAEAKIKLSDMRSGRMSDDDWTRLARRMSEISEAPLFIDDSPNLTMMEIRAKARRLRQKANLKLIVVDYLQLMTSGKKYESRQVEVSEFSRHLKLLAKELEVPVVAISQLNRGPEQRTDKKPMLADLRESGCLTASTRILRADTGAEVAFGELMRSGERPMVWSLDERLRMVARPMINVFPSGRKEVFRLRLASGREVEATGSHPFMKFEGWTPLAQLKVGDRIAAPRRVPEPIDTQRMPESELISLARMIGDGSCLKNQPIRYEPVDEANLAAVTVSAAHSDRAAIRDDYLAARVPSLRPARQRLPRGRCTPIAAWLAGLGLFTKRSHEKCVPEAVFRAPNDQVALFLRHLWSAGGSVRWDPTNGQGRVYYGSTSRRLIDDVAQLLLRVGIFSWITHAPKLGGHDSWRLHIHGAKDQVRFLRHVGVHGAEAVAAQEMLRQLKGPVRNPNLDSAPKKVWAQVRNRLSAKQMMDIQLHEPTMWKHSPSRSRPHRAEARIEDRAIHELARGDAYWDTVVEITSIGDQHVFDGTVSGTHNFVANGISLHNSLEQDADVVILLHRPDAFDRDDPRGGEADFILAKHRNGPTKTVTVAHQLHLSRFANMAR

[6] = target: ATP-dependent molecular chaperone HSP82 (Candida albicans (strain WO-1) (Yeast), UniProt C4YTQ8); assay: loss of DOC-induced GRE-beta-galactosidase reporter signal, dose response, Hsp90 inhibitor project, S. cerevisiae, luminescence (AID 2400); type: functional, cell-based;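 also: beta-galactosidase luminescence from glucocorticoid response element reporter as proxy for Hsp90 function; inhibitor potency where signal loss means Hsp90 inhibition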
[7] = target: Protein kinase C theta type (Homo sapiens, UniProt Q04759); assay: Navigating the Kinome. Panel member name: PRKCQ; type: functional
[8] = target: ALK tyrosine kinase receptor (Homo sapiens, UniProt Q9UM73); type: functional;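 also: ALK tested as one member of a kinase panel screen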
[9] = target: Fibroblast growth factor receptor 1 (Homo sapiens, UniProt P11362); type: functional
[10] = target: Receptor-type tyrosine-protein kinase FLT3 (Homo sapiens, UniProt P36888); type: functional;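 also: FLT3 was tested as one member of a kinome-wide kinase panel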
[11] = target: Vascular endothelial growth factor receptor 2 (Homo sapiens, UniProt P35968); type: functional
[12] = target: G protein-coupled receptor kinase 5 (Homo sapiens, UniProt P34947); assay: Navigating the Kinome. Panel member name: GPRK5; type: functional
[13] = target: Platelet-derived growth factor receptor alpha (Homo sapiens, UniProt P16234); assay: Navigating the Kinome. Panel member name: PDGFRA; type: functional
[14] = target: Leucine-rich repeat serine/threonine-protein kinase 2 (Homo sapiens, UniProt Q5S007); type: functional;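 also: value from a broad kinome-wide panel profiling study in which LRRK2 was one of the kinases tested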
[15] = target: Cyclin-dependent kinase 8 (Homo sapiens, UniProt P49336); assay: Navigating the Kinome. Panel member name: CDK8; type: functional
[16] = target: Glycogen synthase kinase-3 beta (Homo sapiens, UniProt P49841); type: functional;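 also: value comes from a broad kinome profiling panel, with GSK3B as the panel member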
[17] = target: Dual specificity protein kinase CLK4 (Homo sapiens, UniProt Q9HAZ1); type: functional
[18] = target: Dual specificity mitogen-activated protein kinase kinase 2 (Homo sapiens, UniProt P36507); assay: Navigating the Kinome. Panel member name: MAP2K2; type: functional
[19] = target: Luciferin 4-monooxygenase (Photinus pyralis, UniProt P08659); assay: Counter Screen for Luciferase-based Assay Positives. [Related pubchem assays: 620, 618, 411 ]
Caspase-3 = target: T2, Caspase-3 (Homo sapiens, UniProt P42574); type: functional;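 also: Dose-response selectivity test against caspase-3 for candidate inhibitors of sentrin-specific proteases (SENPs)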
T2 sequence (P42574 whole entry): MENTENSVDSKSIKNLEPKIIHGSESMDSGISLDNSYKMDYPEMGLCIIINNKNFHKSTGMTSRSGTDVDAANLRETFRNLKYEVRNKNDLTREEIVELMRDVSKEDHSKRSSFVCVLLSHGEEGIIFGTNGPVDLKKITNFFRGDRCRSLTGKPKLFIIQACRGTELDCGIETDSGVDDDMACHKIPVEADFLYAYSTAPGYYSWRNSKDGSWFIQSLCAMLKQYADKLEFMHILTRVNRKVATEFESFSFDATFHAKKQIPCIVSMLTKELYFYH

[20] = target: T3, Oxysterols receptor LXR-beta (Homo sapiens, UniProt P55055); type: functional, cell-based;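 also: Cell-based luminescence dose-response assay of agonist activity at LXR, run as a confirmatory counterscreen to a daf-12 agonist screen; HEK293 cells with Gal4-LXR fusion and GAL4-driven luciferase reporter; agonist potency from rising luciferase signal of a Gal4-LXR reporter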
T3 sequence (P55055 whole entry): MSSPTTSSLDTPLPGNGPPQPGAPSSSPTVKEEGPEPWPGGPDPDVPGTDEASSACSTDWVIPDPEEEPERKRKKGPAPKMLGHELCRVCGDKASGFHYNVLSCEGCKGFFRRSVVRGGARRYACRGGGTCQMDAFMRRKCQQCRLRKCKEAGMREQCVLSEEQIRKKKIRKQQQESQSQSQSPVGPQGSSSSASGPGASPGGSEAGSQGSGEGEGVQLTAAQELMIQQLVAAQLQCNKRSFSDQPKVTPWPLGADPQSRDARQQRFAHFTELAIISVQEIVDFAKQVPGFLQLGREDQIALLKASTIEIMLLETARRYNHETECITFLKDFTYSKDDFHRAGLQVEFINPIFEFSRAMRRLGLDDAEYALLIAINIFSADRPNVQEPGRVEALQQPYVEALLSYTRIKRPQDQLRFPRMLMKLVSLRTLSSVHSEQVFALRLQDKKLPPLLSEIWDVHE

Chain of Platelet-derived growth factor receptor alpha (P16234 whole entry): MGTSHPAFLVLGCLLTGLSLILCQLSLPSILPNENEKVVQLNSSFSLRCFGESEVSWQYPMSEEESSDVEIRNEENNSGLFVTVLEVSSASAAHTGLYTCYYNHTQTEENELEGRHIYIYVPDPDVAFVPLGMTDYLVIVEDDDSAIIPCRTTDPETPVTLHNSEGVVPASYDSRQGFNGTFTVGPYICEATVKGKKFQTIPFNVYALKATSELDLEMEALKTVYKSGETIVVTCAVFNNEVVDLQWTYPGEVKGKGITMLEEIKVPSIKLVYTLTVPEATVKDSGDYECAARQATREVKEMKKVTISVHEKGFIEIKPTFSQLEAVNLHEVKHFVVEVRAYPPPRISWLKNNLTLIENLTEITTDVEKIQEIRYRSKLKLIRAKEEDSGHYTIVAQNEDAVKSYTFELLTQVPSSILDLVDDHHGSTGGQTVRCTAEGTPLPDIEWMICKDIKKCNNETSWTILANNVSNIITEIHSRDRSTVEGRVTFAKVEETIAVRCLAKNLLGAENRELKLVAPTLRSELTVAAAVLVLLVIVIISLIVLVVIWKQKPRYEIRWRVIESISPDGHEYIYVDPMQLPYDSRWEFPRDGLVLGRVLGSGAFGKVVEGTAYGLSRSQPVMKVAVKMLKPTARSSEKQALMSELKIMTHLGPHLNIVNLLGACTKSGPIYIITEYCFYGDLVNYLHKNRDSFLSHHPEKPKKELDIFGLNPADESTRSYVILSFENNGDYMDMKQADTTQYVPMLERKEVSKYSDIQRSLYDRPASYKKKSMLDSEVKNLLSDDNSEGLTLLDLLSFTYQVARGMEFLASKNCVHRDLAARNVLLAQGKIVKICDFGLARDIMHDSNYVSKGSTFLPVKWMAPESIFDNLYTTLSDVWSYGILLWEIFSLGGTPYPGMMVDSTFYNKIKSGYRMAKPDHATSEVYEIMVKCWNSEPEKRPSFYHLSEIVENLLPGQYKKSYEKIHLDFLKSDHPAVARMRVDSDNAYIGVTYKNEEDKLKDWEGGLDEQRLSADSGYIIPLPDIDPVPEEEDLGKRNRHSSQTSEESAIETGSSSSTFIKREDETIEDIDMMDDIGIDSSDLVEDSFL
Chain of ATP-dependent molecular chaperone HSP82 (C4YTQ8 whole entry): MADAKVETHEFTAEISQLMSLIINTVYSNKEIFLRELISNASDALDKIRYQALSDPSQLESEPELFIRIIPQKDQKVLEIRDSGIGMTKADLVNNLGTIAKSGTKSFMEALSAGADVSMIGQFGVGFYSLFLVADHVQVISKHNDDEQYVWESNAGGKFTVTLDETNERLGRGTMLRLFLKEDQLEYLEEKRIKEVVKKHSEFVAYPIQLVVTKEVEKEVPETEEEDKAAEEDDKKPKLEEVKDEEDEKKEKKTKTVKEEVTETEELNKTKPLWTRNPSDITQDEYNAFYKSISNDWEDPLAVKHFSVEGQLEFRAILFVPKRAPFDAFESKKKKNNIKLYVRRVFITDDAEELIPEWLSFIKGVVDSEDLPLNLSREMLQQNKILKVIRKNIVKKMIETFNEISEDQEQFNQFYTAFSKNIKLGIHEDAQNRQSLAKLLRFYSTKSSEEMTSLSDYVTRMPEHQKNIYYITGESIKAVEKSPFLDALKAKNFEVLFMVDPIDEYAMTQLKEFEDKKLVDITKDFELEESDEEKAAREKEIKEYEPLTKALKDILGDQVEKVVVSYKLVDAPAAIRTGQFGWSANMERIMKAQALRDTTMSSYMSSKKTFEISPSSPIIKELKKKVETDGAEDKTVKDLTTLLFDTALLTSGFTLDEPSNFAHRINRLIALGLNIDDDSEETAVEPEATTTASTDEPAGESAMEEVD
Chain of Leucine-rich repeat serine/threonine-protein kinase 2 (Q5S007 whole entry): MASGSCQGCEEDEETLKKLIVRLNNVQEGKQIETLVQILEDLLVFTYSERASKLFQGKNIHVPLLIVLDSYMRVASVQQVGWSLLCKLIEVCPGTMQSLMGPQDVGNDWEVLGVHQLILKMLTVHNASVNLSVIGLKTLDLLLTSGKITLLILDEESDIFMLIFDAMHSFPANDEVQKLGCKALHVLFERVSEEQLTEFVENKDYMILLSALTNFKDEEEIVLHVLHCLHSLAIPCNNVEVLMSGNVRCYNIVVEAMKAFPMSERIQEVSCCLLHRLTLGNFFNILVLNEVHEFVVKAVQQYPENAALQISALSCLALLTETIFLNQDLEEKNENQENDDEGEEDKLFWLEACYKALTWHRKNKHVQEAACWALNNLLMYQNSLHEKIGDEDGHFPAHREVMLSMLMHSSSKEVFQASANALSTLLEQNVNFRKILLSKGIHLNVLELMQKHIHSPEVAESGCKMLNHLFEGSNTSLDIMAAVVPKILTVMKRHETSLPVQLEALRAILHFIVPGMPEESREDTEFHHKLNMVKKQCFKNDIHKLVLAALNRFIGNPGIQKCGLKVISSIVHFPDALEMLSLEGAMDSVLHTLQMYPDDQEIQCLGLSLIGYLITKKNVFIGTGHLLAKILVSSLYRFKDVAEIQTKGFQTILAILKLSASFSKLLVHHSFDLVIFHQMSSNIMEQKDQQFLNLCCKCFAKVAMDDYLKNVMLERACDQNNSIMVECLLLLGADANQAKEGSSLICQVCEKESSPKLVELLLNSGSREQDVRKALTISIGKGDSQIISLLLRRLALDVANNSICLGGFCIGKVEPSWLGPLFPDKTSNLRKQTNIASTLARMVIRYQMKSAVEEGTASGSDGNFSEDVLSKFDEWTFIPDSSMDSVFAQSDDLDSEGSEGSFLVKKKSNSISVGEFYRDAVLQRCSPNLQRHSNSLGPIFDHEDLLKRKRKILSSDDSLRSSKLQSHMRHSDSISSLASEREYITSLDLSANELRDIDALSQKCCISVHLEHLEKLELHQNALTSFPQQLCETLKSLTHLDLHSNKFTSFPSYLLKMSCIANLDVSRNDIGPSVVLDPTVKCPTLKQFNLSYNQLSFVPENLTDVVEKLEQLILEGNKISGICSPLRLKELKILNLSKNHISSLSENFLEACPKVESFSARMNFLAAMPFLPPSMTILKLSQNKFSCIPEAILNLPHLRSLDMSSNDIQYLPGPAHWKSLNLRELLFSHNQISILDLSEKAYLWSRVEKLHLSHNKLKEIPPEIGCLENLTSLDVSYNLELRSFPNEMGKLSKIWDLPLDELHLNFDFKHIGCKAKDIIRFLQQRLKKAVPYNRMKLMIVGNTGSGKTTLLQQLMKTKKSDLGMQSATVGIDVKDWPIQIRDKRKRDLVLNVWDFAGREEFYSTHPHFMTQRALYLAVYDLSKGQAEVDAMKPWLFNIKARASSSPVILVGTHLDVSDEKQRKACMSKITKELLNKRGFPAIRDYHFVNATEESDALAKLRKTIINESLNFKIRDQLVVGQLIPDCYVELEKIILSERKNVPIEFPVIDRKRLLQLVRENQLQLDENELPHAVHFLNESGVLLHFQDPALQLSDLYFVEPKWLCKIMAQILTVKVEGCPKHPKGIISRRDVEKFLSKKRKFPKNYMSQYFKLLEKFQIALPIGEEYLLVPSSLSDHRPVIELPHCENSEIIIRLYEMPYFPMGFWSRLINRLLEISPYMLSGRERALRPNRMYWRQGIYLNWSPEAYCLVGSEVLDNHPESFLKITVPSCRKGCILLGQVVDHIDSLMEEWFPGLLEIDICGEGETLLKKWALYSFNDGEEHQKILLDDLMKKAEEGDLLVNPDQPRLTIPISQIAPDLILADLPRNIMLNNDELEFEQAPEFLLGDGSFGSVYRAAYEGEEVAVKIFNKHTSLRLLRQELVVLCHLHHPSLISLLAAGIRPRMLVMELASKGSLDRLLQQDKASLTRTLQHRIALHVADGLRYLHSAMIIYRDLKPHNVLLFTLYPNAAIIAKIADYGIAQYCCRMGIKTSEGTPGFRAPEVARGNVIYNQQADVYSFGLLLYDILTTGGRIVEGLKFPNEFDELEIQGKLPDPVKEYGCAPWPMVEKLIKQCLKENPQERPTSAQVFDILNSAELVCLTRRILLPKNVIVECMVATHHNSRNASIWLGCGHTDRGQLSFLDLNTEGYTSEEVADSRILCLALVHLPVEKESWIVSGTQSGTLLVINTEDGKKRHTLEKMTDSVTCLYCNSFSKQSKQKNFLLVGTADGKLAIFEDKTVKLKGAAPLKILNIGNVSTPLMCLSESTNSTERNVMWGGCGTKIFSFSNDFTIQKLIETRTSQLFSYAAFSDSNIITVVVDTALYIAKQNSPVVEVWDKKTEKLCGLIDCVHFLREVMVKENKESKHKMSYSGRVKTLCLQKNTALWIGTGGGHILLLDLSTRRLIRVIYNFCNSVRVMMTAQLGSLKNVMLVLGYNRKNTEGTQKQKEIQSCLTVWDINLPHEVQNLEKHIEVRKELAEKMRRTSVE
Chain of Cyclin-dependent kinase 8 (P49336 whole entry): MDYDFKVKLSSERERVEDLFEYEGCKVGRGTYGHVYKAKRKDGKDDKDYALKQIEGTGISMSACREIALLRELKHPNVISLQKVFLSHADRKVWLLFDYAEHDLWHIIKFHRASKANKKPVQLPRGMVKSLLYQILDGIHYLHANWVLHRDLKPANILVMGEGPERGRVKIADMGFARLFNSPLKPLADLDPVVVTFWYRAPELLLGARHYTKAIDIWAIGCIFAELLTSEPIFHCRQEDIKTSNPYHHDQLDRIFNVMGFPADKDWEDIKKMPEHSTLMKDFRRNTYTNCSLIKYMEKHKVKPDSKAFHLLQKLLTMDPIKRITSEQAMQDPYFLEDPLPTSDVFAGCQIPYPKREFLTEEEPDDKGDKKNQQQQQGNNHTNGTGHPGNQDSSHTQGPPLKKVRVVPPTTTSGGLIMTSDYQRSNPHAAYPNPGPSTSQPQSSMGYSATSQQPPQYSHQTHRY

Q: Which results are given for `CN1CCN(C(c2ccc(C(F)(F)F)cc2)c2cc(Cl)c3cccnc3c2O)CC1` (stereo unspecified)?
A: EC50 [1]: 0.558 µM (active); EC50 [2]: 1.32 µM (active); EC50 [3]: 6.54 µM (active); IC50 [4]: 105 µM (inactive); AC50 [5]: 11.9 µM (active); EC50 [6]: 6.72 µM (active)

Q: What does the source list for `O=C(NC(CCO)c1ccccc1)c1ccc(-c2ccncc2)cc1` (stereo unspecified)?
A: Ki [7]: 1.58 µM (active); Ki [8]: > 6.31 µM (inactive); Ki [9]: > 3.98 µM (inactive); Ki [10]: > 3.16 µM (inactive); Ki [11]: > 2.51 µM (inactive); Ki [12]: > 3.98 µM (inactive); Ki [13]: > 2.51 µM (inactive); Ki [14]: > 2.51 µM (inactive); Ki [15]: 2.51 µM (active); Ki [16]: 1.26 µM (active); Ki [17]: 0.316 µM (active); Ki [18]: > 3.98 µM (inactive)

Q: Which EC50 [19] does the source give for `NC(=O)c1c(NC(=O)c2cc3ccccc3o2)sc2c1CCC2` here?
A: 1.7 µM (active)

Q: What about the IC50 (Caspase-3) of the same compound?
A: 15.1 µM (active)

Q: What about the EC50 [20] of the same compound?
A: > 67.5 µM (inactive)
